The target of this assay is T1, Human CCR3 (Homo sapiens, UniProt P51677).
T1 construct: The cloned CCR3 cDNA was constructed with pcDNA3 vector and transfected into a IC562 cell line; expressed in transfected cells
T1 sequence (P51677 1-355): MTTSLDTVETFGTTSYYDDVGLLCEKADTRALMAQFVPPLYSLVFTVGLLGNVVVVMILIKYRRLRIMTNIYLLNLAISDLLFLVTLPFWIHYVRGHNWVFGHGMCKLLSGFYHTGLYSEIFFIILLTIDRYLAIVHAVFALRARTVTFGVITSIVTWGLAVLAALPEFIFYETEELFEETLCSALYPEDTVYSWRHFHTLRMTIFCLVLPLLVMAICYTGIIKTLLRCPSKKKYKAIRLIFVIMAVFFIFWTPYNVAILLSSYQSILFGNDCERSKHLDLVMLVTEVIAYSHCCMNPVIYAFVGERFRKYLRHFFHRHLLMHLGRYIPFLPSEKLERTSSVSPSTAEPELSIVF
The assay can be described thus: Calcium mobilization assay, eotaxin-stimulated. The class given is cell-based. To be noted: human CCR3-transformed K562 cells, 10 nM eotaxin; compounds of about 40 to 90% purity; read-out: Activity grade Ca2+ (IC50 class). The protocol: • Human CCR3-transformed K562 cells were used. The cloned CCR3 cDNA was constructed with pcDNA3 vector and transfected into a IC562 cell line. The human CCR3-transformed K562 cells were maintained in RPMI-1640 (Cat.#22400-089, Life Technologies) supplemented with 10% FCS (Cat.#A-1115-L, Hyclone), 55 μM 2-mercaptoethanol (Cat.#21985-023, Life Technologies), 1 mM sodium pyruvate (Cat.#11360-070, Life Technologies), 100 units/ml of penicillin G and 100 μg/ml of streptomycin (Cat.#15140-122, Life Technologies), and 0.4 mg/ml of Geneticin (Cat.#10131-035, Life Technologies)(hereinafter called “culture medium”). Before the receptor binding assay, cells were pretreated with 5 mM sodium butyrate (Cat.#193-01522, Wako)-containing the culture medium (2×10^5 cells/ml) for 20-24 hours to increase the expression of CCR3. (2) Receptor Binding Assay (RBA) • Butyrate-pretreated cells, suspended in binding buffer (25 mM HEPES pH 7.6, 1 mM CaCl2, 5 mM MgCl2, 0.5% BSA, 0.1% NaN3) at a cell density of 2×10^6 cells/ml, were added into 60 μl/well in the 96-well round bottom polypropylene plate (Cat.#3365, Costar). Compounds, diluted with the binding buffer (4-times higher concentration of the final concentration), were added into 30 μl/well in the polypropylene plate. [^125I]-labeled human eotaxin (Cat.#IM290, Amersham Pharmacia Biotech), diluted with the binding buffer at the concentration of 0.4 nM (final concentration; 0.1 nM), was added into 30 μl/well in the polypropylene plate. Total 120 μl/well of binding reaction mixture (60 μl/well of cell suspension, 30 μl/well of compound solution, and 30 μl/well of [^125I]-labeled eotaxin) were incubated in the polypropylene plate for 1 hour at room temperature after the incubation, 100 μl/well of the reaction mixture was transferred to a filtration plate (Cat.#MAFB-N0B, Millipore), and washed with the washing buffer (25 mM HEPES pH 7.6, 1 mM CaCl2, 5 mM MgCl2, 0.5% BSA, 0.1% NaN3, 0.5 M NaCl) twice. The 96-well filtration plate was pretreated with 100 μl/well of 0.5% polyethylenimine (Cat.#P-3143, Sigma) for 2-4 hours at room temperature and washed with the washing buffer twice before use. The non-specific binding was determined by parallel incubation in the presence of 500 nM of non-labeled eotaxin (Cat.#23209, Genzyme Techne). The radioactivities remained on the filter were measured by liquid scintillation counter (TopCount™, Packard) after an addition of 45 μl/well of scintillant (Microscint20, Cat.#6013621, Packard). The inhibition percent at each concentration of compound was calculated, and IC50 values were determined from the inhibition curve. [Determination of IC50 Values of Compounds in Calcium Mobilization Assay] (IC50 Ca2+) (1) Cell • Human CCR3-transformed K562 cells were used. The human CCR3-transformed K562 cells were maintained in RPMI-1640 supplemented with 10% FCS, 55 μM 2-mercaptoethanol (Cat.#21985-023, Life Technologies), 1 mM sodium pyruvate, 100 units/ml of penicillin G and 100 μg/ml of streptomycin and 0.4 mg/ml of Geneticin. Before the calcium mobilization assay, cells were pretreated with 5 mM sodium butyrate-containing the culture medium (2×10^5 cells/ml) for 20-24 hours to increase the expression of CCR3. (2) Calcium Mobilization Assay • Butyrate-pretreated cells were loaded with Fluo-3AM (Cat.#F-1242, Molecular Probes) in loading buffer (Hanks' solution Cat.#05906 Nissui, 20 mM HEPES pH 7.6, 0.1% BSA, 1 mM probenecid Cat.#P-8761 Sigma, 1 μM Fluo-3AM, 0.01% pluronic F-127 Cat.#P-6866 Molecular Probes) at a cell density of 1×10^7 cells/ml. Then, cells were washed with calcium assay buffer (Hanks' solution Cat.#05906 Nissui, 20 mM HEPES pH 7.6, 0.1% BSA, 1 mM Probenecid Cat.#P-8761 Sigma). The cell suspension (3.3×10^6 cells/ml) was added into 60 μl/well in the 96-well clear bottom black plate (Cat.#3904, Costar). Compounds, diluted (5-times concentration of the final concentration) with the calcium assay buffer, were added into 20 μl/well in the plate 10 minutes before assay. […]
(A change in cytosolic calcium serves as a functional read-out for many receptors and channels.)

Counter-ions that a name gives are not always drawn.

For orientation: IC50 means the point on the concentration scale where inhibition reaches its midpoint. For the molecule `N#Cc1ccc(Oc2cc(Cl)cc(Cl)c2)c(S(=O)(=O)N2CC[C@H](N)C2)c1` [Example 13-1, 1-{5-cyano-2-(3,5-dichlorophenoxy)phenylsulfonyl}-(3S)-aminopyrrolidine hydrochloride], the half-inhibitory concentration (IC50) was under 1 µM.

As for `Cc1cc(C)cc(Oc2cc(Cl)c(C#N)cc2S(=O)(=O)N2CCNCC2)c1` [Example 12-2], the IC50 lay within 1 to 10 µM.

For `Cc1cc(C)cc(Oc2ccc(-c3nnnn3CCC#N)cc2S(=O)(=O)N2CCNCC2)c1` [Example 22-3, 3-{5-[4-(3,5-dimethylphenoxy)-3-(1-piperazinylsulfonyl)phenyl]-1H-tetraazol-1-yl}propanenitrile hydrochloride], the IC50 is under 1 µM.

As to `O=[N+]([O-])c1ccc(Sc2ccccc2)c(S(=O)(=O)N2CCNCC2)c1` [Example 2-14], the IC50 lay in the range of 1 to 10 µM.

For `CN(c1cc(Cl)cc(Cl)c1)c1ccc(C#N)cc1S(=O)(=O)N1CCNCC1` [Example 21-1, 4-[(3,5-dichlorophenyl)(methyl)amino]-3-(1-piperazinylsulfonyl)benzonitrile hydrochloride], the IC50 is 1 to 10 µM.

On to `CC1CCCCN1CCCNS(=O)(=O)c1cc([N+](=O)[O-])ccc1Oc1cc(Cl)cc(Cl)c1` (stereo not shown) [Example 4-40], for which the IC50 was under 1 µM.

With `O=[N+]([O-])c1ccc(Nc2ccc(F)cc2)c(S(=O)(=O)N2CCNCC2)c1` [Example 3-11], the IC50 is under 1 µM.

Turning to `Cc1cc(C)cc(Oc2cc([N+](=O)[O-])ccc2S(=O)(=O)N2CCNCC2)c1` [Example 23-1, 1-{2-(3,5-dimethylphenoxy)-4-nitrophenylsulfonyl}piperazine hydrochloride], the IC50 was under 1 µM.

On to `Cc1cc(C)cc(Oc2ccc(CO)cc2S(=O)(=O)N2CCNCC2)c1` [Example 16-1, [4-(3,5-dimethylphenoxy)-3-(1-piperazinylsulfonyl)phenyl]methanol hydrochloride], for which the IC50 is under 1 µM.

On to `NCCNS(=O)(=O)c1cc([N+](=O)[O-])ccc1Oc1cc(Cl)cc(Cl)c1` [Example 1-95], for which the IC50 is under 1 µM.

For `Cc1cc(C)cc(Oc2ccc(C(=O)O)cc2S(=O)(=O)N2CCNCC2)c1` [Example 14-1, 4-(3,5-dimethylphenoxy)-3-(1-piperazinylsulfonyl)benzoic acid hydrochloride], the IC50 was under 1 µM.

`O=[N+]([O-])c1ccc(Nc2cccc(F)c2)c(S(=O)(=O)N2CCNCC2)c1` [Example 3-10]: the IC50 is under 1 µM.

Turning to `O=[N+]([O-])c1ccc(Nc2ccc(Cl)cc2)c(S(=O)(=O)N2CCNCC2)c1` [Example 3-8], the IC50 is under 1 µM.

With `O=[N+]([O-])c1ccc(Oc2cc(Cl)cc(Cl)c2)c(S(=O)(=O)NCC2CCNCC2)c1` [Example 1-96], the IC50 was under 1 µM.

For `Cc1cc(C)cc(Oc2ccc(C(=O)NCCC(N)=O)cc2S(=O)(=O)N2CCNCC2)c1` [Example 22-2, N-[4-(3,5-dimethylphenoxy)-3-(1-piperazinylsulfonyl)benzoyl]-beta-alanineamide hydrochloride], the IC50 was under 1 µM.

For `Cc1cccc(Oc2ccc([N+](=O)[O-])cc2S(=O)(=O)N2CCNCC2)c1` [Example 1-24], the IC50 was under 1 µM.

`O=[N+]([O-])c1ccc(Oc2cc(Cl)cc(Cl)c2)c(S(=O)(=O)NCCN2CCCCC2)c1` [Example 4-41]: the IC50 was under 1 µM.

In the case of `Cc1cc(C)cc(Oc2ccc(-c3nnn[nH]3)cc2S(=O)(=O)N2CCNCC2)c1` [Example 22-4, 1-{[2-(3,5-dimethylphenoxy)-5-(1H-tetraazol-5-yl)phenyl]sulfonyl}piperazine hydrochloride], the IC50 is under 1 µM.

As for `Cc1cc(C)cc(Oc2ccc(C(=O)NCCC#N)cc2S(=O)(=O)N2CCNCC2)c1` [Example 22-1, N-(2-cyanoethyl)-4-(3,5-dimethylphenoxy)-3-(1-piperazinylsulfonyl)benzamide hydrochloride], the IC50 was under 1 µM.

Turning to `O=[N+]([O-])c1ccc(Nc2ccccc2F)c(S(=O)(=O)N2CCNCC2)c1` [Example 3-9], the IC50 was under 1 µM.

As for `Cc1cc(C)cc(Oc2ccc(C(N)=O)cc2S(=O)(=O)N2CCNCC2)c1` [Example 15-1, 4-(3,5-dimethylphenoxy)-3-(1-piperazinylsulfonyl)benzamide hydrochloride], the IC50 was under 1 µM.

In the case of `N#Cc1ccc([S+]([O-])c2cc(Cl)cc(Cl)c2)c(S(=O)(=O)N2CCNCC2)c1` (stereo not shown) [Example 19-1, 4-[(3,5-dichlorophenyl)sulfinyl]-3-(1-piperazinylsulfonyl)benzonitrile hydrochloride], the IC50 was 1 to 10 µM.

With `Cc1cc(C)cc(Oc2cc(Cl)c(C(N)=O)cc2S(=O)(=O)N2CCNCC2)c1` [Example 15-3], the IC50 is 1 to 10 µM.

`Cc1cc(C)cc(N(C)c2ccc([N+](=O)[O-])cc2S(=O)(=O)N2CCNCC2)c1` [Example 21-2]: the IC50 is under 1 µM.

Turning to `NC(=O)c1cc(F)c(Oc2cc(Cl)cc(Cl)c2)c(S(=O)(=O)N2CCNCC2)c1` [Example 15-4], the IC50 is 1 to 10 µM.

For `O=C(O)c1ccc(Oc2cc(Cl)cc(Cl)c2)c(S(=O)(=O)N2CCNCC2)c1` [Example 14-3], the IC50 was under 1 µM.

On to `COC(=O)c1ccc(Oc2cc(C)cc(C)c2)c(S(=O)(=O)N2CCNCC2)c1` [Example 15-2, methyl 4-(3,5-dimethylphenoxy)-3-(1-piperazinylsulfonyl)benzoate hydrochloride], for which the IC50 is under 1 µM.

For the molecule `Cc1cc(C)cc(Oc2cc(Br)cc(S(=O)(=O)N3CCNCC3)c2)c1` [Example 24-1, 1-{[3-bromo-5-(3,5-dimethylphenoxy)phenyl]sulfonyl}piperazine hydrochloride], the IC50 is under 1 µM.

For the molecule `COc1ccccc1Nc1ccc([N+](=O)[O-])cc1S(=O)(=O)N1CCNCC1` [Example 3-12], the IC50 is under 1 µM.

For `N#Cc1cc(S(=O)(=O)N2CCNCC2)c(Oc2cc(Cl)cc(Cl)c2)cc1Cl` [Example 12-3], the half-maximal inhibitory concentration (IC50) was in the range of 1 to 10 µM.

On to `CN(C)CC(C)(C)CNS(=O)(=O)c1cc([N+](=O)[O-])ccc1Sc1cc(Cl)cc(Cl)c1` [Example 2-4], for which the IC50 is under 1 µM.

`N#Cc1ccc(Oc2cc(Cl)cc(Cl)c2)c(S(=O)(=O)NCCN)c1` [Example 13-8]: the IC50 was under 1 µM.

As to `COC(=O)c1cncc(Oc2ccc([N+](=O)[O-])cc2S(=O)(=O)N2CCNCC2)c1` [Example 1-53], the IC50 fell in the range of 1 to 10 µM.

Consider `CN(C)CCCCNS(=O)(=O)c1cc([N+](=O)[O-])ccc1Oc1cc(Cl)cc(Cl)c1` [Example 4-39], for which the IC50 is under 1 µM.

The record behind these values is patent US8242118B2, “Arylsulfonamide derivatives for use as CCR3 antagonists in the treatment of inflammatory and immunological disorders” (Axikin Pharmaceuticals Inc., priority 2001, dated 2012).
